# According to patent US12275715B2, “Pyridin-2(1H)-one quinolinone derivatives as mutant-isocitrate dehydrogenase inhibitors” (FORMA Therapeutics, Inc., priority 2014, dated 2025):
# How the values were obtained:
# [1] = system: HCT116 isogenic IDH1-R132C mutant cells; experiment: Cellular 2-HG assay using HCT116 mutant IDH1 cells (R132C); type: cell-based; conditions: Homo sapiens, HCT-116; cellular 2-HG inhibition, 24 hours, RapidFire mass spectrometry; read-out: HCT116 IDH1 R132C Range
# Experimental: (§1) HCT116 isogenic IDH1-R132H and IDH1-R132C mutant cells were cultured in growth media (McCoy's 5A, 10% fetal bovine serum, 1× antibiotic-antimycotic solution and 0.3 mg/mL G418) in 5% CO2 in an incubator at 37° C. To prepare the assay, cells were trypsinized and resuspended in assay media (McCoy's 5A with no L-glutamine, 10% fetal bovine serum, 1× antibiotic-antimycotic solution and 0.3 mg/mL G418). An aliquot of 10,000 cells/100 μL was transferred to each well of a clear 96-well tissue culture plate. The cells were incubated in 5% CO2 at 37° C. in an incubator overnight to allow for proper cell attachment. An aliquot of 50 μL of compound containing assay media were then added to each well and the assay plate was kept in 5% CO2 at 37° C. in an incubator for 24 hours. The media was then removed from each well and 150 μL of a methanol/water mixture (80/20 v/v) was added to each well. The plates were kept at −80° C. freezer overnight to allow for complete cell lysis. An aliquot of 125 μL of extracted supernatant was analyzed by RapidFire high-throughout-mass spectrometry (Agilent) to determine the cellular 2-HG level. The IC50 of a given compound was calculated by fitting the dose response curve of cellular 2-HG inhibition at a given concentration with the four parameter logistic equation
# [2] = target: IDH1-R132C recombinant protein (Homo sapiens, UniProt O75874, R132C); experiment: IDH1-R132C enzymatic assay (NADPH consumption, diaphorase/resazurin readout); type: biochemical; conditions: read-out: Enzyme IDH1 R132C Range
# Experimental: (§2) Assays were performed in a 384-well black plate. […] After the plate was centrifuged briefly, an aliquot of 10 μL of 2 mM α-ketoglutarate and 20 μM NADPH solution prepared in assay buffer was then added to each well and the reaction was maintained at 25° C. for 45 minutes. An aliquot of 10 μL of diaphorase solution (0.15 U/mL diaphorase and 30 μM Resazurin in assay buffer) was added to each well. […] The IC50 of a given compound was calculated by fitting the dose response curve of inhibition of NADPH consumption at a given concentration with the four parameter logistic equation.
# [3] = system: HCT116 isogenic IDH1-R132H mutant cells; experiment: Cellular 2-HG assay using HCT116 mutant IDH1 cells (R132H); type: cell-based; conditions: Homo sapiens, HCT-116; cellular 2-HG inhibition, 24 hours, RapidFire mass spectrometry; read-out: HCT116 IDH1 R132H Range
# Experimental: as §1
# [4] = target: IDH1-R132H recombinant protein (Homo sapiens, UniProt O75874, R132H); experiment: IDH1-R132H enzymatic assay (NADPH consumption, diaphorase/resazurin readout); type: biochemical; conditions: read-out: Enzyme IDH1 R132H Range
# Experimental: as §2
# Chain of IDH1-R132H recombinant protein (O75874 whole entry R132H): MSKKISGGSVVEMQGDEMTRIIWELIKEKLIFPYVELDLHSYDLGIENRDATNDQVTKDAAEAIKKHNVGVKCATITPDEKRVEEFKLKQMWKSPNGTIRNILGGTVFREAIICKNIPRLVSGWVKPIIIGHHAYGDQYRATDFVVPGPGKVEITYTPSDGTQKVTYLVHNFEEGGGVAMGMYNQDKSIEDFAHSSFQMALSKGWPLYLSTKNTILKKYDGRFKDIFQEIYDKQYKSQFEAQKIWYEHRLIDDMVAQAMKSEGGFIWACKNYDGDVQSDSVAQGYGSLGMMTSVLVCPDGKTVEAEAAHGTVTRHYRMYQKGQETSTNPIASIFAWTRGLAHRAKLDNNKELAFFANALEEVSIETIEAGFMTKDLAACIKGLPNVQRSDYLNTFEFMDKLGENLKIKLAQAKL
# Chain of IDH1-R132C recombinant protein (O75874 whole entry R132C): as the sequence (O75874 whole entry R132H) above, with H132C counted along it
Structure (SMILES),IC50 [1] [nM],IC50 [2] [nM],IC50 [3] [nM],IC50 [4] [nM]
"C[C@H](Nc1ncc(C#N)n(C)c1=O)c1cc2cc(Cl)ccc2[nH]c1=O [Compound I-17, 5-{[(1S)-1-(6-chloro-2-oxo-1,2-dihydroquinolin-3-yl)ethyl]amino}-1-methyl-6-oxo-1,6-dihydropyrazine-2-carbonitrile]",100 to 1000,100 to 1000,10 to 100,10 to 100
"C[C@H](Nc1ccc(C#N)n(C)c1=O)c1cc2cc(Cl)c(OCc3ccccn3)cc2[nH]c1=O [Compound I-23, 5-{[(1S)-1-[6-chloro-2-oxo-7-(pyridin-2-ylmethoxy)-1,2-dihydroquinolin-3-yl]ethyl]amino}-1-methyl-6-oxo-1,6-dihydropyridine-2-carbonitrile]",< 10,,< 10,
"C[C@H](Nc1ccc(C#N)n(C)c1=O)c1cc2cc(Cl)c(F)cc2[nH]c1=O [Compound I-16, 5-{[(1S)-1-(6-chloro-7-fluoro-2-oxo-1,2-dihydroquinolin-3-yl)ethyl]amino}-1-methyl-6-oxo-1,6-dihydropyridine-2-carbonitrile]",100 to 1000,100 to 1000,10 to 100,10 to 100
"COc1cc2[nH]c(=O)c(C(C)Nc3ccc(C#N)n(C)c3=O)cc2cc1Cl (centres unmarked) [Compound I-22, 5-{[1-(6-chloro-7-methoxy-2-oxo-1,2-dihydroquinolin-3-yl)ethyl]amino}-1-methyl-6-oxo-1,6-dihydropyridine-2-carbonitrile]",10 to 100,,< 10,
"O=c1[nH]c2ccc(Cl)cc2cc1CNc1ccc(C(F)(F)F)[nH]c1=O [Compound I-8, 6-chloro-3-({[2-oxo-6-(trifluoromethyl)-1,2-dihydropyridin-3-yl]amino}methyl)-1,2-dihydroquinolin-2-one]",,,,> 1000
"COc1cc2[nH]c(=O)c([C@H](C)Nc3ccc(C#N)n(C)c3=O)cc2cc1Cl [Compound I-20, 5-{[(1S)-1-(6-chloro-7-methoxy-2-oxo-1,2-dihydroquinolin-3-yl)ethyl]amino}-1-methyl-6-oxo-1,6-dihydropyridine-2-carbonitrile]",10 to 100,,< 10,
"N#Cc1ccc(NCc2cc3cc(Cl)ccc3[nH]c2=O)c(=O)[nH]1 [Compound I-4, 5-{[(6-chloro-2-oxo-1,2-dihydroquinolin-3-yl)methyl]amino}-6-oxo-1,6-dihydropyridine-2-carbonitrile]",,100 to 1000,,10 to 100
"C[C@H](Nc1ccc(C#N)n(C)c1=O)c1cc2cc(Cl)c(OCC3CC3)cc2[nH]c1=O [Compound I-27, 5-{[(1S)-1-[6-chloro-7-(cyclopropylmethoxy)-2-oxo-1,2-dihydroquinolin-3-yl]ethyl]amino}-1-methyl-6-oxo-1,6-dihydropyridine-2-carbonitrile]",10 to 100,,< 10,
"C[C@H](Nc1ccc(C#N)[nH]c1=O)c1cc2cc(Cl)ccc2[nH]c1=O [Compound I-14, 5-{[(1S)-1-(6-chloro-2-oxo-1,2-dihydroquinolin-3-yl)ethyl]amino}-6-oxo-1,6-dihydropyridine-2-carbonitrile]",100 to 1000,100 to 1000,10 to 100,10 to 100
"CC(C)Oc1cc2[nH]c(=O)c([C@H](C)Nc3ccc(C#N)n(C)c3=O)cc2cc1Cl [Compound I-29, 5-{[(1S)-1-[6-chloro-2-oxo-7-(propan-2-yloxy)-1,2-dihydroquinolin-3-yl]ethyl]amino}-1-methyl-6-oxo-1,6-dihydropyridine-2-carbonitrile]",10 to 100,,10 to 100,
"CC(Nc1ccc(C#N)n(C)c1=O)c1cc2cc(Cl)c(F)cc2[nH]c1=O (centres unmarked) [Compound I-19, 5-{[1-(6-chloro-7-fluoro-2-oxo-1,2-dihydroquinolin-3-yl)ethyl]amino}-1-methyl-6-oxo-1,6-dihydropyridine-2-carbonitrile]",10 to 100,100 to 1000,10 to 100,10 to 100
"COC(=O)c1c[nH]c(=O)c(NCc2cc3cc(Cl)ccc3[nH]c2=O)c1 [Compound I-10, methyl 5-{[(6-chloro-2-oxo-1,2-dihydroquinolin-3-yl)methyl]amino}-6-oxo-1,6-dihydropyridine-3-carboxylate]",,,,> 1000
"C[C@H](Nc1ccc(C#N)n(C)c1=O)c1cc2cc(Cl)cc(F)c2[nH]c1=O [Compound I-30, 5-{[(1S)-1-(6-chloro-8-fluoro-2-oxo-1,2-dihydroquinolin-3-yl)ethyl]amino}-1-methyl-6-oxo-1,6-dihydropyridine-2-carbonitrile]",100 to 1000,100 to 1000,10 to 100,10 to 100
"O=c1[nH]c2ccc(Cl)cc2cc1CNc1ccc(Br)[nH]c1=O [Compound I-7, 3-{[(6-bromo-2-oxo-1,2-dihydropyridin-3-yl)amino]methyl}-6-chloro-1,2-dihydroquinolin-2-one]",,,,> 1000
"C[C@H](Nc1ccc(C#N)n(C)c1=O)c1cc2cc(Cl)c(O[C@H](C)c3ccccn3)cc2[nH]c1=O [Compound I-26, 5-(((S)-1-(6-chloro-2-oxo-7-((R)-1-(pyridin-2-yl)ethoxy)-1,2-dihydroquinolin-3-yl)ethyl)amino)-1-methyl-6-oxo-1,6-dihydropyridine-2-carbonitrile]",< 10,,< 10,
"Cn1cccc(NCc2cc3cc(Cl)c(OCc4ccccn4)cc3[nH]c2=O)c1=O [Compound I-12, 6-chloro-3-{[(1-methyl-2-oxo-1,2-dihydropyridin-3-yl)amino]methyl}-7-(pyridin-2-ylmethoxy)-1,2-dihydroquinolin-2-one]",,> 10000,,10 to 100
"C[C@@H](Nc1ccc(C#N)n(C)c1=O)c1cc2cc(Cl)c(F)cc2[nH]c1=O [Compound I-18, 5-{[(1R)-1-(6-chloro-7-fluoro-2-oxo-1,2-dihydroquinolin-3-yl)ethyl]amino}-1-methyl-6-oxo-1,6-dihydropyridine-2-carbonitrile]",,> 10000,,> 1000
"C[C@H](Nc1ccc(C#N)n(C)c1=O)c1nc2cc(Cl)ccc2[nH]c1=O [Compound I-33, 5-{[(1S)-1-(7-chloro-3-oxo-3,4-dihydroquinoxalin-2-yl)ethyl]amino}-1-methyl-6-oxo-1,6-dihydropyridine-2-carbonitrile]",> 1000,1000 to 10000,100 to 1000,100 to 1000
"C[C@H](Nc1ccc(C#N)n(C)c1=O)c1cc2cc(Cl)ccc2[nH]c1=O [Compound I-13, (S)-5-((1-(6-chloro-2-oxo-1,2-dihydroquinolin-3-yl)ethyl)amino)-1-methyl-6-oxo-1,6-dihydropyridine-2-carbonitrile]",10 to 100,,10 to 100,
"CC(Nc1ccc(C#N)n(C)c1=O)c1cc2cc(Cl)c(OCC3CC(F)(F)C3)cc2[nH]c1=O (centres unmarked) [Compound I-28, 5-[(1-{6-chloro-7-[(3,3-difluorocyclobutyl)methoxy]-2-oxo-1,2-dihydroquinolin-3-yl}ethyl)amino]-1-methyl-6-oxo-1,6-dihydropyridine-2-carbonitrile]",10 to 100,,10 to 100,10 to 100
"Cn1c(C(F)(F)F)ccc(NCc2cc3cc(Cl)ccc3[nH]c2=O)c1=O [Compound I-9, 6-chloro-3-({[1-methyl-2-oxo-6-(trifluoromethyl)-1,2-dihydropyridin-3-yl]amino}methyl)-1,2-dihydroquinolin-2-one]",,> 10000,,100 to 1000
"C[C@H](Nc1ccc(C#N)n(C)c1=O)c1cc2cc(Cl)cnc2[nH]c1=O [Compound I-31, 5-{[(1S)-1-(6-chloro-2-oxo-1,2-dihydro-1,8-naphthyridin-3-yl)ethyl]amino}-1-methyl-6-oxo-1,6-dihydropyridine-2-carbonitrile]",> 1000,1000 to 10000,10 to 100,100 to 1000
"CC(Nc1ccc(C#N)n(C)c1=O)c1cc2cc(Cl)c(OCc3ccccn3)cc2[nH]c1=O (centres unmarked) [Compound I-25, 5-({1-[6-chloro-2-oxo-7-(pyridin-2-ylmethoxy)-1,2-dihydroquinolin-3-yl]ethyl}amino)-1-methyl-6-oxo-1,6-dihydropyridine-2-carbonitrile]",< 10,,< 10,
"C[C@@H](Nc1ccc(C#N)n(C)c1=O)c1nc2cc(Cl)ccc2[nH]c1=O [Compound I-32, 5-{[(1R)-1-(7-chloro-3-oxo-3,4-dihydroquinoxalin-2-yl)ethyl]amino}-1-methyl-6-oxo-1,6-dihydropyridine-2-carbonitrile]",> 1000,1000 to 10000,> 1000,100 to 1000
